The test system of test [1] is wild-type and drug-resistant HIV clones. The experiment in a line: Monogram drug susceptibility assays, profile across viral panel. In kind it is cell-based, HIV-1. The settings on record: weakest EC50 to a variant divided by that to wild-type.
Test [2] addresses wild-type HIV-1 protease (Human immunodeficiency virus type 1 group M subtype B, UniProt P03369). The experiment in a line: FRET enzyme inhibition assay, wild-type protease. Type of test: biochemical.
The target in test [3] is HIV-1 protease M2 (D30N, N88D) (Human immunodeficiency virus type 1 group M subtype B, UniProt P03369, D520N/N578D). Briefly: FRET enzyme inhibition assay, M2 variant. Type of test: biochemical.
Test [4] concerns the target HIV-1 protease M4 (I50V, A71V) (Human immunodeficiency virus type 1 group M subtype B, UniProt P03369, A561V/I540V). Briefly: FRET enzyme inhibition assay, M4 variant. In kind it is biochemical.
Test [5] has as its system wild-type HIV-1 protease and drug-resistant variants M1, M2, M3, M4. The experiment in a line: FRET enzyme inhibition, profile across wild type and mutant panel. In kind it is biochemical. Conditions: weakest Ki to a drug-resistant variant divided by Ki to wild type.

The source of these data is PMC3833293 (ACS Chemical Biology, 2013).

Molecules are shown by their SMILES.

Regarding `COc1ccc(S(=O)(=O)N(CC2CCCCC2)C[C@@H](O)[C@H](Cc2ccccc2)NC(=O)c2cccc(O)c2)cc1` [AF-77], the worst-fold activity loss in test [1] is reported as 2.2 fold.

In test [1], `O=C(N[C@@H](Cc1ccccc1)[C@H](O)CN(CC1CCCCC1)S(=O)(=O)c1ccc2ncsc2c1)c1cccc(O)c1` [AF-72] came in with a worst-fold activity loss of 2.6 fold.

The Ki is the dissociation constant of the complex between target and ligand, obtained from inhibition or displacement. Read a low Ki as tighter binding. Turning to `CC[C@H](C)CN(C[C@@H](O)[C@H](Cc1ccccc1)NC(=O)[C@@H](NC(C)=O)[C@@H](C)CC)S(=O)(=O)c1ccc2ncsc2c1` [AG-23], the inhibition constant (Ki) in test [2] (Ki, wild type, mean ± standard deviation) was found to be 0.021 ± 0.009 nM; in test [3], 0.028 ± 0.025 nM; in test [4], 0.092 ± 0.025 nM. This compound yielded a worst-fold activity loss in test [1] of 3.2 fold.

Regarding `CC[C@H](C)CN(C[C@@H](O)[C@H](Cc1ccccc1)NC(=O)c1cccc(O)c1)S(=O)(=O)c1ccc(-c2ccno2)s1` [AF-71], the “loss in affinity to wild-type protease compared to parent compound” value in test [2] (AF-71 vs AD-93, AF-80 vs KB-83) worked out at 72 fold.

`CC[C@H](C)[C@H](NC(C)=O)C(=O)N[C@@H](Cc1ccccc1)[C@H](O)CN(CC(C)C)S(=O)(=O)c1ccc(OC)cc1` [AF-68]: the worst-fold activity loss in test [1] is listed as 4.4 fold.

As for `COc1ccc(S(=O)(=O)N(CCCc2ccccc2)C[C@@H](O)[C@H](Cc2ccccc2)NC(=O)c2cccc(O)c2)cc1` [AF-78], in test [5], the worst-fold affinity loss stood at 98 fold.
